Results on two compounds are retold here after patent US10259776B2, “Branched 3-phenylpropionic acid derivatives and their use” (BAYER INTELLECTUAL PROPERTY GMBH, priority 2011, dated 2019).

For experiment [1], the target named is sGC in the CHO reporter cell (Rattus norvegicus (Rat), UniProt P20595). The experiment in a line: Action at a recombinant guanylate cyclase reporter cell line. It counts as cell-based. The conditions noted are these: CHO reporter cell in vitro. As for the experimental part: The cellular action of the compounds according to the invention is determined at a recombinant guanylate cyclase reporter cell line, as described in F. Wunder et al., Anal. Biochem. 339, 104-112 (2005).

For experiment [2], the target named is Haem-containing sGC (recombinant soluble guanylate cyclase) (Rattus norvegicus (Rat), UniProt P20595). In words: Stimulation of recombinant soluble guanylate cyclase (sGC) in vitro, haem-containing enzyme. It counts as biochemical. Particulars: for Stimulation (x-fold) of recombinant sGC, haem-containing sGC, basal: n = 5. The text has this:
Hoenicka, E. M. Becker, H. Apeler, T. Sirichoke, H. Schroeder, R. Gerzer and J.-P. Stasch, “Purified soluble guanylyl cyclase expressed in a baculovirus/Sf9 system: Stimulation by YC-1, nitric oxide, and carbon oxide”, J. Mol. Med. 77 (1999), 14-23. The haem-free guanylate cyclase is obtained by adding Tween 20 to the sample buffer (0.5% in the final concentration).
(§1) The activation of sGC by a test substance is reported as x-fold stimulation of the basal activity.

Experiment [3] concerns the target Haem-free sGC (recombinant soluble guanylate cyclase) (Rattus norvegicus (Rat), UniProt P20595). The experiment in a line: Stimulation of recombinant soluble guanylate cyclase (sGC) in vitro, haem-free enzyme. It is filed as biochemical. Particulars: haem-free (0.5% Tween 20), n = 5. As to the method:
Investigations on the stimulation of recombinant soluble guanylate cyclase (sGC) by the compounds according to the invention with and without sodium nitroprusside, and with and without the haem-dependent sGC inhibitor 1H-1,2,4-oxadiazolo[4,3a]quinoxalin-1-one (ODQ), are carried out by the method described in detail in the following reference: M. Hoenicka, E. M. Becker, H. Apeler, T. Sirichoke, H. Schroeder, R. Gerzer and J.-P. Stasch, “Purified soluble guanylyl cyclase expressed in a baculovirus/Sf9 system: Stimulation by YC-1, nitric oxide, and carbon oxide”, J. Mol. Med. 77 (1999), 14-23. The haem-free guanylate cyclase is obtained by adding Tween 20 to the sample buffer (0.5% in the final concentration).
as §1

The target of experiment [4] is soluble guanylate cyclase (sGC) (Rattus norvegicus (Rat), UniProt P20595). In words: Stimulation of sGC enzyme activity (PPi detection, luciferase). It counts as biochemical. Particulars: sGC enzyme in vitro. As to the method:
Soluble guanylate cyclase (sGC) converts on stimulation GTP into cGMP and pyrophosphate (PPi). PPi is detected with the aid of the assay described below. The signal produced in the assay increases as the reaction progresses and serves as a measure of the sGC enzyme activity under the given stimulation.
To carry out the assay, 29 μl of enzyme solution [0-10 nM soluble guanylate cyclase (prepared according to Honicka et al., J. Mol. Med. 77, 14-23 (1999)) in 50 mM TEA, 2 mM MgCl2, 0.1% BSA (fraction V), 0.005% Brij®, pH 7.5] are initially introduced into a microplate, and 1 μl of the substance to be tested (as a serially diluted solution in DMSO) is added. The mixture is incubated at room temperature for 10 min. […] The enzyme reaction is started by adding 20 μl of substrate solution [1.25 mM guanosine 5′-triphosphate (Sigma) in 50 mM TEA, 2 mM MgCl2, 0.1% BSA (fraction V), 0.005% Brij®, pH 7.5] and measured continuously in a luminometer. The extent of the stimulation by the substance to be tested can be determined relative to the signal of the unstimulated reaction. […]

Haem-free sGC (recombinant soluble guanylate cyclase), sequence (P20595 whole entry): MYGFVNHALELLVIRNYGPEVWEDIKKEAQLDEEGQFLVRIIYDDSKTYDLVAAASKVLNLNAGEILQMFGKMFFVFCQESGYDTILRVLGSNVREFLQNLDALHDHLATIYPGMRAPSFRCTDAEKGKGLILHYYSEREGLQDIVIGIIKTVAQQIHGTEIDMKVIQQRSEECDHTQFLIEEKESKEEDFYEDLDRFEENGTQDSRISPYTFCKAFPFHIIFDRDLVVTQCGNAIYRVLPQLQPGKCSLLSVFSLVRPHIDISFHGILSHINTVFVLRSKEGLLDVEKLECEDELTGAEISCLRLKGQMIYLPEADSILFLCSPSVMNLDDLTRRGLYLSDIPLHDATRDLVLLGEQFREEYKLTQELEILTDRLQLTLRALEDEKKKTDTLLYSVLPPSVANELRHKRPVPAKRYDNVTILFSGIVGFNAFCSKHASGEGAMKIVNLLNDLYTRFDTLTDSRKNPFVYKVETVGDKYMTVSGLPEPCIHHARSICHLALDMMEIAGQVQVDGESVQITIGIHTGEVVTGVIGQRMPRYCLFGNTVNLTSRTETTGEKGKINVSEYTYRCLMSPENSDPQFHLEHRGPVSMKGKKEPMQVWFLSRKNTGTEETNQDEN
Haem-free sGC (recombinant soluble guanylate cyclase), sequence (P19686 whole entry partner): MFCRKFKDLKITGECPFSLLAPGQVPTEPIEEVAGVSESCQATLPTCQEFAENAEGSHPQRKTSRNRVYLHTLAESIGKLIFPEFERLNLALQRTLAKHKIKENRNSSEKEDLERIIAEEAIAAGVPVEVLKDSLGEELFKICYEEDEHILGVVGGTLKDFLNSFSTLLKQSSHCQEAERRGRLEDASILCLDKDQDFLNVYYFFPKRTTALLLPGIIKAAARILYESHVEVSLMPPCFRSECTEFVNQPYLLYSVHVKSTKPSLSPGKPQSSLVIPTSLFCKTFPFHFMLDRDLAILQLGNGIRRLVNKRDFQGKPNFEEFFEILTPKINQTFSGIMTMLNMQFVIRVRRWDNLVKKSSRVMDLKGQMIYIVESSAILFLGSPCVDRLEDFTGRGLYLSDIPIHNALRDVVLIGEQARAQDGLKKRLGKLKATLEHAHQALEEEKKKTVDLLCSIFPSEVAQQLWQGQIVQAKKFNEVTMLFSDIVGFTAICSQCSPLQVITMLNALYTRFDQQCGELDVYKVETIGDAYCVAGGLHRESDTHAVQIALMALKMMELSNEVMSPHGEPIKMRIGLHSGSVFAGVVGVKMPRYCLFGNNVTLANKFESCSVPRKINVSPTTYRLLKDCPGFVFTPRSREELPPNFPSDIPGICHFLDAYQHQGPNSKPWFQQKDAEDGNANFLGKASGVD
Haem-containing sGC (recombinant soluble guanylate cyclase), sequence (P20595 whole entry): as the sequence (P20595 whole entry) above
Haem-containing sGC (recombinant soluble guanylate cyclase), sequence (P19686 whole entry partner): as the sequence (P19686 whole entry partner) above
sGC in the CHO reporter cell, sequence (P20595 whole entry): as the sequence (P20595 whole entry) above
sGC in the CHO reporter cell, sequence (P19686 whole entry partner): as the sequence (P19686 whole entry partner) above
soluble guanylate cyclase (sGC), sequence (P20595 whole entry): as the sequence (P20595 whole entry) above
soluble guanylate cyclase (sGC), sequence (P19686 whole entry partner): as the sequence (P19686 whole entry partner) above

For the compound `C[C@H]([C@H](C(=O)Nc1cc(C(CC(=O)O)C2CC2)ccc1Cl)c1ccc(Cl)cc1)C(F)(F)F` (single isomer, unassigned; (+)) [Example 22], the “MEC (minimum effective concentration), sGC-activating activity in the CHO reporter cell” value in experiment [1] is listed as 1.8 nM. The “Stimulation (x-fold) of recombinant sGC, haem-containing sGC, +0.01 μM DEA/NO” value in experiment [2] (0.01 μM Example 22) amounted to 4.4 ± 1.3 x-fold; in experiment [2] (0.1 μM Example 22), 3.4 ± 0.9 x-fold; in experiment [2] (1.0 μM Example 22), 4.4 ± 1.4 x-fold; in experiment [2] (10 μM Example 22), 7.8 ± 2.5 x-fold. Further, the “Stimulation (x-fold) of recombinant sGC, haem-containing sGC, +10 μM ODQ” value worked out at 5.7 ± 1.6 x-fold in experiment [2] (0.01 μM Example 22), 6.1 ± 1.7 x-fold in experiment [2] (0.1 μM Example 22), 8.4 ± 2.2 x-fold in experiment [2] (1.0 μM Example 22) and 18.3 ± 5.4 x-fold in experiment [2] (10 μM Example 22). Also, the “Stimulation (x-fold) of recombinant sGC, haem-containing sGC, basal” value in experiment [2] (0.01 μM Example 22) was 1.6 ± 0.3 x-fold; in experiment [2] (0.1 μM Example 22), 1.6 ± 0.5 x-fold; in experiment [2] (1.0 μM Example 22), 2.4 ± 1.0 x-fold; in experiment [2] (10 μM Example 22), 4.9 ± 1.2 x-fold. Besides, the “Effect of combination with the NO donor DEA/NO on sGC stimulation” value in experiment [2] (haem-containing sGC, combination with DEA/NO) is on record as “no synergistic effect”. Also, the “Stimulation (x-fold) of recombinant sGC, haem-free sGC, basal” value in experiment [3] (0.01 μM Example 22) is listed as 1.2 ± 0.1 x-fold; in experiment [3] (0.1 μM Example 22), 1.6 ± 0.5 x-fold; in experiment [3] (1.0 μM Example 22) it was 4.9 ± 1.5 x-fold; in experiment [3] (10 μM Example 22) it was 14.2 ± 2.0 x-fold.

In the case of `CC(C(=O)O)C(c1ccc(Cl)c(NC(=O)C(c2ccc(Cl)cc2)[C@@H](C)C(F)(F)F)c1)C1CC1` (stereo partly drawn) [Example 30, 3-(4-Chloro-3-{[(3R)-2-(4-chlorophenyl)-4,4,4-trifluoro-3-methylbutanoyl]amino}phenyl)-3-cyclopropyl-2-methylpropanoic acid], in experiment [1], the “MEC (minimum effective concentration), sGC-activating activity in the CHO reporter cell” value is reported as 10 nM. The “MEC (minimum effective concentration), activating action at the sGC enzyme” value in experiment [4] stood at 17 nM.
